Measurements taken from patent US9475842B2, “Hexadepsipeptide analogues as anticancer compounds” (PIRAMAL ENTERPRISES LIMITED, priority 2012, dated 2016).

Legend:
[1] = tested on: HCT 116 (Colorectal Cancer); experiment: Monolayer assay (CCK-8 cytotoxicity); assay type: cell-based, human; conditions: Homo sapiens, HCT-116; HCT116, Colon; 24 hrs exposure, CCK-8; read-out: IC50
Experimental: (§1) The assays were designed as in the reference, BMC Cancer, 2010, 10, 610, 1-11; the disclosure of which is incorporated by reference for the teaching of the assay.
(§2) Human tumour cell lines: Panc-1 (Pancreatic Cancer), HCT 116 (Colorectal Cancer), ACHN (Renal Cell Carcinoma), Calu-1 (Lung Carcinoma), MiaPaca2 (Pancreatic Cancer), FADU (Head and Neck Cancer), PC3 (prostate Cancer), G361 (Melanoma), MDA-MB435S (Melanoma), HeLa (Cervical Cancer) were grown in Minimal Essential Media with Eagle's Basal Salts (MEM-EBS) obtained from AMIMED (BioConcept-Switzerland). Tumour cell lines: MDA-MB231 (Breast Cancer), JURKAT (T cell leukaemia), H460 (Small Cell Lung Cancer) were cultured in RPMI 1640 (AMIMED, BioConcept, Switzerland) medium. All tumour cell lines were supplemented with 10% Foetal Bovine Serum (FBS) (GIBCO), 1% Penicillin/Streptomycin (Sigma) and 1% Anti-Anti (GIBCO) and grown in T-175 tissue culture flasks (Nunc). MCF-10A, a non-tumourigenic cell line, was cultured in Mammary Epithelial Basal Medium (MEBM) with all standard additions (Lonza, Catalog. No. CC-3150). All cells were grown in 5% CO2 incubator at 37° C. Cells were passaged at 80-90% confluence. Adherent cells were trypsinised using Trypsin-EDTA (Sigma) and maintained. All cell lines were purchased from ATCC (Rockville, Md., USA).
(§3) Compound of Formula (1a) [described in example 7] was dissolved in DMSO to give a required stock solution of 20 mM. Eight different concentrations of the compound of Formula (1a) were prepared by serial dilution of stock solution finally resulting in a (compared to the test concentration) 200-fold higher concentration. Compound of Formula (1a) was tested at the concentration of 0.0001 μM, 0.001 μM, 0.01 μM, 0.03 μM, 0.1 μM, 0.3 μM, 1 μM and 3 μM respectively. Each concentration was evaluated in triplicate.
(§4) Method for determination of IC50 of the compound of Formula (1a): • a) Different cancer/normal cells were seeded at a density of 3000 cells/200 μL well, in a tissue culture grade 96 well plate and allowed them to recover for 24 hrs in a humidified 5±0.2% CO2 incubator at 37±0.5° C. • b) After 24 hrs, 1 μL of 200× (200 times higher than required concentration is denoted as 200×) compound of Formula (1a), dissolved in DMSO, was added to the above tissue culture plate seeded with cancer/normal cells. The final concentration of DMSO was 0.5% in wells. DMSO was used as a vehicle control. • c) After 24 hrs the plate was removed from CO2 incubator and 5 μL of CCK-8 (Dojindo Molecular Technologies, Inc. USA, catalog, no. CK04-20) per well was added. • d) The plate was then placed at 37° C. for 2 hrs. • e) The absorbance was recorded at 450 nm. • f) The percent cytotoxicity was calculated using the following formula
(§5) The IC50 value was estimated by visual inspection of the concentration-effect curve. For calculation of mean IC50 values over the fourteen cell lines as tested, the geometric mean was selected.
(§6) The assays were designed as described above in example 16.
(§7) The IC50 value was estimated by visual inspection of the concentration-effect curve. For calculation of mean IC50 values over the six cell lines (PC3, MDA MB, HCT116, MCF7, MIAPaCa2, MCF10A) as tested, the geometric mean was selected.

[2] = tested on: MDA-MB231 (Breast Cancer); experiment: Monolayer assay (CCK-8 cytotoxicity); assay type: cell-based, human; conditions: Homo sapiens, MDA-MB-231; MDAMB231, Breast; 24 hrs exposure, CCK-8; read-out: IC50
Experimental: as §1, §2, §3, §4, §5, §6, §7

[3] = tested on: PC3 (prostate Cancer); experiment: Monolayer assay (CCK-8 cytotoxicity); assay type: cell-based, human; conditions: Homo sapiens; PC3, Prostate; 24 hrs exposure, CCK-8; read-out: IC50
Experimental: as §1, §2, §3, §4, §5, §6, §7

[4] = tested on: ACHN (Renal Cell Carcinoma); experiment: Monolayer assay (CCK-8 cytotoxicity); assay type: cell-based; conditions: Homo sapiens, 24 hrs exposure
Experimental: as §1, §2, §3, §4, §5

[5] = tested on: Calu-1 (Lung Carcinoma); experiment: Monolayer assay (CCK-8 cytotoxicity); assay type: cell-based; conditions: Homo sapiens, 24 hrs exposure
Experimental: as §1, §2, §3, §4, §5

[6] = tested on: FADU (Head and Neck Cancer); experiment: Monolayer assay (CCK-8 cytotoxicity); assay type: cell-based; conditions: Homo sapiens, 24 hrs exposure
Experimental: as §1, §2, §3, §4, §5

[7] = tested on: G361 (Melanoma); experiment: Monolayer assay (CCK-8 cytotoxicity); assay type: cell-based; conditions: Homo sapiens, G-361, 24 hrs exposure
Experimental: as §1, §2, §3, §4, §5

[8] = tested on: H460; experiment: Monolayer assay (CCK-8 cytotoxicity); assay type: cell-based; conditions: Homo sapiens, NCI-H460, H460, Non Small Cell Lung, 24 hrs exposure
Experimental: as §1, §2, §3, §4, §5

[9] = tested on: HeLa (Cervical Cancer); experiment: Monolayer assay (CCK-8 cytotoxicity); assay type: cell-based; conditions: Homo sapiens, 24 hrs exposure
Experimental: as §1, §2, §3, §4, §5

[10] = tested on: JURKAT (T cell leukaemia); experiment: Monolayer assay (CCK-8 cytotoxicity); assay type: cell-based; conditions: Homo sapiens, 24 hrs exposure
Experimental: as §1, §2, §3, §4, §5

[11] = tested on: MDA-MB435S (Melanoma); experiment: Monolayer assay (CCK-8 cytotoxicity); assay type: cell-based; conditions: Homo sapiens, MDA-MB-435S, MDAMB435S, 24 hrs exposure
Experimental: as §1, §2, §3, §4, §5

[12] = tested on: Panc-1 (Pancreatic Cancer); experiment: Monolayer assay (CCK-8 cytotoxicity); assay type: cell-based; conditions: Homo sapiens, 24 hrs exposure
Experimental: as §1, §2, §3, §4, §5

[13] = tested on: HeLa cancer cells; experiment: Detection of FITC Annexin V apoptosis by flow cytometry; assay type: cell-based, human; conditions: for cells positive for annexin V staining (M2): HeLa cells, 12 hrs
Excerpt: The annexin V assay, a classical technique for detecting apoptosis, is the most commonly used method for detecting apoptosis by flow cytometry. One of the earliest features of apoptosis is the translocation of phosphatidylserine from the inner to the outer leaflet of the plasma membrane, thereby exposing phosphatidylserine to the external environment.
Annexin V (cat. no. 556420, BD Biosciences, USA) binds to phosphatidylserine exposed on the cell surface and identifies cells at an earlier stage of apoptosis. • a) HeLa cancer cells [referred to in step 1 of example 16] were seeded at a density of 0.5×10^6 cells/2000 μL well, in a tissue culture grade […] and allowed them to recover for 12 hrs in a humidified 5±0.2% CO2 incubator at 37±0.5° C. • b) After 12 hrs, 5 μL of 200× (200 times higher than required concentration is represented as 200×) compound of Formula (1a) dissolved in DMSO [step 2, example 16] was added to above tissue culture plate seeded with HeLa cancer cells. The final test concentration of the compound of Formula (1a) was 0.0003 μM, 0.003 μM and 0.01 μM. […] The population present in M1 and M2 were determined using FACS analysis.

[14] = Solubility (physical properties); assay type: physicochemical

CC(C)CC1CCC(O)(C(C)(O)C(=O)NC2C(=O)N3NCCCC3C(=O)N(O)C(C)C(=O)NCC(=O)N3NCCCC3C(=O)N(O)C(C)C(=O)OC2C(C)C)OC1C (stereo not drawn) [Formula (1a), N-(6,18-dihydroxy-22-isopropyl-7,19-dimethyl-5,8,11,17,20,24-hexaoxotetracosa hydrodipyridazino[6,1-f:6′,1′-o][1,4,7,10,13,16]oxapentaazacyclononadecin-23-yl)-2-hydroxy-2-(2-hydroxy-5-isobutyl-6-methyltetrahydro-2H-pyran-2-yl)propanamide]
IC50 [1]: 15.1 ± 2.3 nM | IC50 [2]: 6.1 ± 0.52 nM | IC50 [3]: 5.2 ± 0.41 nM | IC50 [4]: 7.1 ± 0.64 nM | IC50 [5]: 25.2 ± 3.5 nM | IC50 [6]: 22.4 ± 1.2 nM | IC50 [7]: 24.1 ± 4.3 nM | IC50 [8]: 9.2 ± 0.76 nM | IC50 [9]: 10.1 ± 3.1 nM | IC50 [10]: 15.9 ± 2.6 nM | IC50 [11]: 2.9 ± 0.48 nM | IC50 [12]: 1.3 ± 0.32 nM | induction of apoptosis (in words) ([13]; HeLa cancer cells, conclusion): induces cell death through apoptosis | cells positive for annexin V staining (M2) ([13]; 0.0003 μM): 33.80% | cells positive for annexin V staining (M2) ([13]; 0.003 μM): 40.27% | cells positive for annexin V staining (M2) ([13]; 0.01 μM): 59.05% | Solubility in organic solvents ([14]; chloroform, ethyl acetate and methanol): Soluble in chloroform, ethyl acetate and methanol; | Solubility in water ([14]; water): insoluble in water
